We go through five compounds from EP4806892A1, “CEREBLON E3 UBIQUITIN LIGASE INHIBITOR” (GAN & LEE PHARMACEUTICALS CO., LTD., priority 2023, dated 2025).

Experiment [1] concerns the target T1, AR protein (Homo sapiens, UniProt P10275).
T1 construct: AR-positive human prostate cancer cells VCaP (cell source: ATCC); host or cells: VCaP
T1 sequence (P10275 1-920): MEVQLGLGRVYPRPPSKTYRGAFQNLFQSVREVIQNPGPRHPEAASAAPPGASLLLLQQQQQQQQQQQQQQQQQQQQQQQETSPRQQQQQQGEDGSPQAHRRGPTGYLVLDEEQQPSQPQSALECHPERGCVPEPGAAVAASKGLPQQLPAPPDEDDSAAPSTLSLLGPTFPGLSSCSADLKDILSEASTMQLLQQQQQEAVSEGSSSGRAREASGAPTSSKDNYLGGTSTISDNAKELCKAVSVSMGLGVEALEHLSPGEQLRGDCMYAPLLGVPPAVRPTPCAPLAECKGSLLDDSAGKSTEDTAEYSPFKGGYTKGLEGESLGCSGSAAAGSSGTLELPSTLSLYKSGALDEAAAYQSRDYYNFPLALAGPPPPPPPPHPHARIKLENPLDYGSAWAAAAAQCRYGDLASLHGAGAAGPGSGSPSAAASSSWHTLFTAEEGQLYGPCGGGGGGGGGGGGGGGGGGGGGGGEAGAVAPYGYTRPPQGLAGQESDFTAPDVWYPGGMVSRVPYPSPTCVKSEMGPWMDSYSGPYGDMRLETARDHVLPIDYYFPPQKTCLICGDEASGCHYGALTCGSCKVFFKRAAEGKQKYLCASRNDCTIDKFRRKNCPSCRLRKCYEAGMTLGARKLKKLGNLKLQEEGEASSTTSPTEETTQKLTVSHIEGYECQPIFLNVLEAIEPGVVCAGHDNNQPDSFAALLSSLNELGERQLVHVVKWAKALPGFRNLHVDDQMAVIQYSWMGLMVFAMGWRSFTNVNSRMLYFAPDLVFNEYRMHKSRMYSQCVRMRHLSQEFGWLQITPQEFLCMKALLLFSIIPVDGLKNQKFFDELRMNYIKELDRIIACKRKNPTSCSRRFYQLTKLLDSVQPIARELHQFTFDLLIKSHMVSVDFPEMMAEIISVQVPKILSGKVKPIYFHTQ
In words: AR protein degradation in VCaP cells (Western blot). The class given is cell-based. The conditions noted are these: 8h. The protocol: AR-positive human prostate cancer cells VCaP (cell source: ATCC) were cultured in DMEM (GiBco catalog number 11995-065) containing 10% FBS (Hyclone catalog number SH30406.05), and the cells were inoculated in a six-well microplate (Thermo catalog number 140675) at a density of 3 × 10^5 cells/well. After being cultured overnight in a carbon dioxide incubator (ESCO), the prepared compound of the present invention and the positive control sample ARV-766 (energy chemical) solution of different concentrations were added at a volume of 1 µL/well to make the final concentrations of the compound and the positive control sample reach 5nM and 0.5nM, respectively. At the same time, the corresponding solvent control was set and cultured for 8h. After 8h of culture, the culture medium was removed, and the cells were washed with PBS. RIPA lysis buffer containing 1% Protease Inhibitor Cocktail was added. After lysis and centrifugation, a total protein extract was obtained, and the protein concentration in the extract was detected by BCA method. Protein electrophoresis was performed using SDS-PAGE, and then the protein was transferred to a PVDF (Millipore Sigma catalog number PSRP010R5) membrane at a constant voltage of 100V for 60min. The PVDF membrane was placed in a 5% milk powder 1×TBST solution and blocked at room temperature for 1h. The primary antibody solution (Anti-Androgen receptor, Cell Signaling Technology catalog number: 5153S; 1:2000 dilution) was prepared and incubated at 4°C overnight. The primary antibody solution was discarded and the PVDF membrane was washed with 1×TBST for 5 minutes each time, three times. The secondary antibody solution (Thermo catalog number SA5-35571; 1:7500 dilution) was prepared and incubated at room temperature for 1 hour. The secondary antibody solution was discarded and the PVDF membrane was washed with 1×TBST for 5 minutes each time, three times. A dual-color infrared laser imaging system (Licor catalog number Odyssey CLX) was used for Western membrane imaging. The Image Studio software was used to analyze the grayscale of the bands. GAPDH protein bands were also detected for each sample as an internal reference. The AR protein degradation rate of the compound and the positive control sample was calculated based on the grayscale of the protein bands. Among them, "A" means degradation rate ≥ 50%, "B" means 50%> degradation rate ≥ 20%, "C" means 20% degradation rate ≥ 10%, and "D" means degradation rate less than 10%.
For orientation: In western blotting, separated proteins are transferred to a membrane and probed.

In experiment [2] the target is T2, AR protein (Homo sapiens, UniProt P10275, T878A).
T2 construct: AR-positive human prostate cancer cells (LNCaP, cell source: ATCC); host or cells: LNCaP
T2 sequence (P10275 whole entry T878A): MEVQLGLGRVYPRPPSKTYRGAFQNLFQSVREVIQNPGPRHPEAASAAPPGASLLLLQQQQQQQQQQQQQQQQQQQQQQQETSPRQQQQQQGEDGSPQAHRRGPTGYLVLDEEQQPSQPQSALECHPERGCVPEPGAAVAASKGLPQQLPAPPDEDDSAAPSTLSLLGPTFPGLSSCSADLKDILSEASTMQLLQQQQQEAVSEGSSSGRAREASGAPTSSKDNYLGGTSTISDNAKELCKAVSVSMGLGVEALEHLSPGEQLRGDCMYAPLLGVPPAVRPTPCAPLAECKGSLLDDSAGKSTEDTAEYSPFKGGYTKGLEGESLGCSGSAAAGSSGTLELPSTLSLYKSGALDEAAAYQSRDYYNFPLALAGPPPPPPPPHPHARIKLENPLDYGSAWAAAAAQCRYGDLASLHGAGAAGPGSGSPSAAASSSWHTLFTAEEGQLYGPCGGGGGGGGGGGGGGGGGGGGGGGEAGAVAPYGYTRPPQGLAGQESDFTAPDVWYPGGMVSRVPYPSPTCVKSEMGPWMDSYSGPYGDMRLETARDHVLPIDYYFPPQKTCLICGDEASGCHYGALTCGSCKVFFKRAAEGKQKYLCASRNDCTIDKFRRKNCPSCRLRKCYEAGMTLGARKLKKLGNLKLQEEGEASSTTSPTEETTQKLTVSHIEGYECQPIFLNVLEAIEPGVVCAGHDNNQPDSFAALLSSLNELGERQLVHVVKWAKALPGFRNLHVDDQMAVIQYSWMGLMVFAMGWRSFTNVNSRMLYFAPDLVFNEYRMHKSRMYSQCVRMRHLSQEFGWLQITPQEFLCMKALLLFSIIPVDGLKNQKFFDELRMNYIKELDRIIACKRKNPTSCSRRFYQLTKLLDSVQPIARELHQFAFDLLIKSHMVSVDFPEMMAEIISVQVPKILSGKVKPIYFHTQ
T2 sequence (Q96SW2 whole entry partner): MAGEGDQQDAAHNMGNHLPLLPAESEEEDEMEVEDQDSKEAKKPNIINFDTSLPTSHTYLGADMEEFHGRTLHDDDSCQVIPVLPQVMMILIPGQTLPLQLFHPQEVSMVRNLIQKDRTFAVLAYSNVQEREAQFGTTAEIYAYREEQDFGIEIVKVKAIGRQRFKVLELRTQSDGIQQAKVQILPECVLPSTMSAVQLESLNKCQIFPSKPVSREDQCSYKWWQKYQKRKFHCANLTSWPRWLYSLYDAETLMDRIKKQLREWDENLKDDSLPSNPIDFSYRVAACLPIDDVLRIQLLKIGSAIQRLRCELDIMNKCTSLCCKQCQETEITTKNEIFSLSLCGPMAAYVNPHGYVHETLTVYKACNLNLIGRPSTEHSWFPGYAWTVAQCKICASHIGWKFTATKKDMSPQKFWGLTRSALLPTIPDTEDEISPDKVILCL
The experiment is described as follows: AR protein degradation in LNCaP cells (Western blot). The experiment is classed as cell-based. The conditions noted are these: 8 hours. As for the experimental part: AR-positive human prostate cancer cells (LNCaP, cell source: ATCC) were cultured in RPMI 1640 (ATCC catalog number 30-2001) containing 10% FBS (Hyclone catalog number SH30406.05), and the cells were inoculated into a six-well microplate (Thermo catalog number 140675) at a density of 1.5 × 10^5 cells/well. After the cells were cultured overnight in a carbon dioxide incubator (ESCO), the prepared compound of the present invention and the positive control sample ARV-766 (source: energy chemical) solution of different concentrations were added at a volume of 1 µL/well to make the final concentrations of the compound and the positive control sample reach 100nM and 10nM, respectively. At the same time, the corresponding solvent control was set and cultured for 8 hours. After 8 hours of culture, the culture medium was removed, the cells were washed with PBS, and RIPA lysis buffer containing 1% Protease Inhibitor Cocktail was added. After lysis and centrifugation, the total protein extract was obtained, and the protein concentration in the extract was detected by BCA method. Protein electrophoresis was performed using SDS-PAGE, and then the protein was transferred to a PVDF (Millipore Sigma catalog number PSRP010R5) membrane at a constant voltage of 100V for 60 minutes. The PVDF membrane was placed in a 5% milk powder 1×TBST solution and blocked at room temperature for 1 hour. The primary antibody solution (Anti-Androgen receptor, Cell Signaling Technology catalog number: 5153S; 1:2000 dilution) was prepared and incubated at 4°C overnight. The primary antibody solution was discarded and the PVDF membrane was washed with 1×TBST for 5 minutes each time, three times. The secondary antibody solution (Thermo, catalog number SA5-35571; 1:7500 dilution) was prepared and incubated at room temperature for 1 hour. The secondary antibody solution was discarded and the PVDF membrane was washed with 1×TBST for 5 minutes each time, three times. A dual-color infrared laser imaging system (Licor catalog number Odyssey CLX) was used for Western membrane imaging. The Image Studio software was used to analyze the grayscale of the bands. GAPDH protein bands were also detected for each sample as an internal reference. The AR protein degradation rate of the compound and the positive control sample was calculated based on the grayscale of the protein bands. Among them, "A" means degradation rate ≥ 50%, "B" means 50%> degradation rate ≥ 20%, "C" means 20% degradation rate ≥ 10%, and "D" means degradation rate less than 10%.

With `C[C@H]1CC2(CCN(c3ccc(C(=O)N4CCC(CN5CCN6c7ccc(N8CCC(=O)NC8=O)cc7OCC[C@H]6C5)CC4)cc3)CC2)CN1c1ccc(C#N)c(C(F)(F)F)c1` [A-P-195], the “Degradation rate of AR protein in VCAP cells” value is “B (50%> degradation rate ≥ 20%)” at AR protein [1] (0.5 nM) and “A (degradation rate ≥ 50%)” on AR protein [1] (5 nM). For the same compound, the “Degradation rate of AR protein in LNCAP cells” value at AR protein [2] (10 nM) and at AR protein [2] (100 nM) was “A (degradation rate ≥ 50%)” throughout.
Regarding `COc1cc(O[C@H]2C(C)(C)[C@H](NC(=O)c3ccc(N4CCC(F)(CN5CCN6c7ccc(N8CCC(=O)NC8=O)cc7OCC[C@H]6C5)CC4)cc3)C2(C)C)ccc1C#N` [A-P-196], the “Degradation rate of AR protein in VCAP cells” value at AR protein [1] (0.5 nM) and at AR protein [1] (5 nM) was “A (degradation rate ≥ 50%)” throughout. Further, the “Degradation rate of AR protein in LNCAP cells” value is “B (50%> degradation rate ≥ 20%)” at AR protein [2] (10 nM) and “A (degradation rate ≥ 50%)” on AR protein [2] (100 nM).
As to `C[C@H]1CC2(CCN(c3ccc(C(=O)N4CCC(CN5CCC6(COc7cc(N8CCC(=O)NC8=O)ccc76)C(F)(F)C5)CC4)cc3)CC2)CN1c1ccc(C#N)c(Cl)c1` (stereo partly shown) [A-P-233], the “Degradation rate of AR protein in VCAP cells” value at AR protein [1] (5 nM) was “B (50%> degradation rate ≥ 20%)”. Moreover, the “Degradation rate of AR protein in LNCAP cells” value at AR protein [2] (10 nM) and on AR protein [2] (100 nM) was “A (degradation rate ≥ 50%)” throughout.
With `C[C@H]1CC2(CCN(c3ccc(C(=O)N4CCC(CN5CCC6(CC5)CN(C)c5ccc(N7CCC(=O)NC7=O)cc5O6)CC4)cc3)CC2)CN1c1ccc(C#N)c(Cl)c1` [A-P-235, (S)-2-chloro-4-(8-(4-(4-((7-(2,4-dioxotetrahydropyrimidin-1(2H)-yl)-4-methyl-3,4-dihydrospiro[benzo[b][1,4]oxazin-2,4'-piperidine]-1'-yl)methyl)piperidine-1-carbonyl)phenyl)-3-methyl-2,8-diazaspiro[4.5]decane-2-yl)benzonitrile], the “Degradation rate of AR protein in VCAP cells” value at AR protein [1] (0.5 nM) and at AR protein [1] (5 nM) was “A (degradation rate ≥ 50%)” each time. In addition, the “Degradation rate of AR protein in LNCAP cells” value on AR protein [2] (10 nM) and on AR protein [2] (100 nM) was “A (degradation rate ≥ 50%)” in each case.
As for `COc1cc(O[C@H]2C(C)(C)[C@H](NC(=O)c3ccc(N4CCC(CN5CCN(c6ccc(C(=O)N[C@H]7CCC(=O)NC7=O)c(F)c6)CC5)CC4)cc3)C2(C)C)ccc1C#N` [ARV766, reference compound], the “Degradation rate of AR protein in VCAP cells” value on AR protein [1] (0.5 nM) and on AR protein [1] (5 nM) was “A (degradation rate ≥ 50%)” each time. Further, the “Degradation rate of AR protein in LNCAP cells” value at AR protein [2] (10 nM) is listed as “B (50%> degradation rate ≥ 20%)”; on AR protein [2] (100 nM) it was “A (degradation rate ≥ 50%)”.
